Test results as given in patent US20250262222A1, “HETEROCYCLIC COMPOUNDS, COMPOSITIONS THEREOF, AND METHODS OF TREATMENT THEREWITH” (BeiGene Switzerland GmbH, priority 2022, published 2025).

Columns and labels:
[1] = system: pERK1/2(THR202/TYR204) level in AsPC-1 cell line; test: KRAS G12D pERK assay; type: cell-based; details: Homo sapiens, ASPC1, 2 h, AsPC-1 cells, 2 h compound treatment, HTRF
Outline: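 AsPC-1 (KRAS G12D) cells, 30000/well, seeded overnight, then treated 2 h with a 10-point series at 0 to 10 μM final. Lysate pERK1/2 (Thr202/Tyr204) detected by HTRF after overnight antibody incubation at room temperature; IC50 from percent inhibition versus log concentration.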

Mouse and rat PK study = type: in vivo, male CD-1 mice or SD-JVC rats; details: compared to dibasic G12D inhibitors (e.g., Example 17)
Procedure: The pharmacokinetics of compounds were evaluated in male CD-1 mice or SD-JVC rats via intravenous and oral administration. For intravenous administration study, test compounds were dissolved in DMA:30% Solutol HS 15(w/v): Saline (20:20:60, by volume) and injected with a 1 mg/kg dose via tail vein. For oral administration study, test compounds were dissolved in 0.5% MC or PEG400/Phosal 50 PG/EtOH (30/60/10, by volume) and administrated to mice at 10 mg/kg or 30 mg/kg by gavage. Animals will be grouped and treated according to body weight. At the time points after dosing (5 (IV only), 15, and 30 min and 1, 2, 4, 8 and 24 h after administration), Rat blood samples will be collected from JVC, Mice will be anesthetized by isoflurane and blood samples will be collected from orbital bleeding. Blood samples will be collected into 1.5 mL EDTA.K2 coated EP tube. Approximately 50 μL blood (Mouse) and 150 μL blood (Rat) were collected at each time point and placed on ice, then centrifuge at 5600 rpm 7 min at 4° C. to obtain plasma. Plasma will be transferred into new tube and stored at −20° C. or dry ice temporary. The samples will be stored at −80° C. until ex vivo PK assay.
Plasma concentrations were determined via the following sample processing method and measurement conditions. An aliquot of 10 μL sample was added with 200 μL IS (Terfenadine, 5 ng/mL) in ACN. […]

[2] = Gastrointestinal accumulation and toxicity, mono-basic vs dibasic G12D inhibitors (method not described); type: in vivo; details: compared to dibasic G12D inhibitors (e.g., Example 17)
[3] = system: ERK1/2 phosphorylation in SW1990 tumors; test: SW1990 PD studies; type: in vivo, Female NCG mice; details: oral administration
Procedure: Female NCG mice were subcutaneously implanted with 5×10^6 SW1990 cells per 200 μL PBS/matrigel in the right flank. After inoculation, when tumors reached a mean volume of approximately 350-450 mm^3 in size, mice were randomized into treatment groups. Randomized mice would receive a single dose of vehicle consisting of 0.5% MC or test compounds at various dose (e.g. 30, 50, or 100 mg/kg) by oral administration. Plasma was collected at 0.5, 2, 4, and 7 hours, and tumor was collected at 7 hours after dosing to determine exposure levels. Tumor fragments were snap frozen in homogenization tubes with liquid nitrogen and homogenized with T-PER Tissue Protein Extraction Buffer with protease and phosphatase inhibitors added fresh before use. Tumor lysates were then analyzed for ERK1/2 phosphorylation.

Row | SMILES | IC50 [1] [µM] | oral exposure (Mouse and rat PK study) | gastrointestinal accumulation [2] | toxicity [2] | oral pharmacodynamic effects [3]
1 | Nc1cc(Cl)c(C(F)(F)F)c(-c2nc3c4c(nc(OCC56COC(C5)C6)nc4c2F)N2C[C@H]4CC[C@H](N4)C2CCO3)c1 (stereo partly drawn) [Example 23, 3-((7S,10R)-13-((2-oxabicyclo[2.1.1]hexan-4-yl)methoxy)-1-fluoro-5,6,6a,7,8,9,10,11-octahydro-4-oxa-3,11a,12,14,15-pentaaza-7,10-methanocyclohepta[4,5]cycloocta[1,2,3-de]naphthalen-2-yl)-5-chloro-4-(trifluoromethyl)aniline] | 0.114 | enhanced oral exposure | reduced gastrointestinal accumulation | reduced toxicity | –
2 | Cc1cc(N)cc(-c2nc3c4c(nc(OCC56COC(C5)C6)nc4c2F)N2C[C@H]4CC[C@H](N4)[C@H]2CCO3)c1C(F)(F)F [Example 27, 3-((6aR,7S,10R)-13-((2-oxabicyclo[2.1.1]hexan-4-yl)methoxy)-1-fluoro-5,6,6a,7,8,9,10,11-octahydro-4-oxa-3,11a,12,14,15-pentaaza-7,10-methanocyclohepta[4,5]cyclo-octa[1,2,3-de]naphthalen-2-yl)-5-methyl-4-(trifluoromethyl)aniline] | 0.203 | – | – | – | enhanced oral pharmacodynamic effects
3 | Cc1cc(N)cc(-c2nc3c4c(nc(OCC56COC(C(F)F)(C5)C6)nc4c2F)N2C[C@H]4CC[C@H](N4)[C@H]2CCO3)c1C(F)(F)F [Example 29, 3-((6aR,7S,10R)-13-((1-(difluoromethyl)-2-oxabicyclo[2.1.1]hexan-4-yl)methoxy)-1-fluoro-5,6,6a,7,8,9,10,11-octahydro-4-oxa-3,11a,12,14,15-pentaaza-7,10-methanocyclohepta[4,5]cyclo-octa[1,2,3-de]naphthalen-2-yl)-5-methyl-4-(trifluoromethyl)aniline] | 0.092 | – | – | – | enhanced oral pharmacodynamic effects
4 | Nc1cc(Cl)c(C(F)(F)F)c(-c2nc3c4c(nc(OCC56CCC(CC5)OC6)nc4c2F)N2C[C@H]4CC[C@H](N4)[C@H]2CCO3)c1 [Example 40, 3-((6aR,7S,10R)-13-((2-oxabicyclo[2.2.2]octan-4-yl)methoxy)-1-fluoro-5,6,6a,7,8,9,10,11-octahydro-4-oxa-3,11a,12,14,15-pentaaza-7,10-methanocyclohepta[4,5]cyclo-octa[1,2,3-de]naphthalen-2-yl)-5-chloro-4-(trifluoromethyl)aniline] | 0.303 | – | – | – | enhanced oral pharmacodynamic effects
5 | Nc1cc(Cl)c(C(F)(F)F)c(-c2nc3c4c(nc(OCC5(C(F)F)COC5)nc4c2F)N2C[C@H]4CC[C@H](N4)[C@H]2CCO3)c1 [Example 32, 3-chloro-5-((6aR,7S,10R)-13-((3-(difluoromethyl)oxetan-3-yl)methoxy)-1-fluoro-5,6,6a,7,8,9,10,11-octahydro-4-oxa-3,11a,12,14,15-pentaaza-7,10-methanocyclohepta[4,5]cyclo-octa[1,2,3-de]naphthalen-2-yl)-4-(trifluoromethyl)aniline] | 0.117 | – | – | – | enhanced oral pharmacodynamic effects
